Data taken from ChEMBL document CHEMBL3991601, “The target landscape of clinical kinase drugs” (Science, 2017).
Activity calls are given as the source filed them.

Key:
[1] = biological target: Serine/threonine-protein kinase/endoribonuclease IRE2 (Homo sapiens, UniProt Q76MJ5)
[2] = biological target: T1, Serine/threonine-protein kinase TBK1 (Homo sapiens, UniProt Q9UHD2)
T1 sequence (Q9UHD2 whole entry): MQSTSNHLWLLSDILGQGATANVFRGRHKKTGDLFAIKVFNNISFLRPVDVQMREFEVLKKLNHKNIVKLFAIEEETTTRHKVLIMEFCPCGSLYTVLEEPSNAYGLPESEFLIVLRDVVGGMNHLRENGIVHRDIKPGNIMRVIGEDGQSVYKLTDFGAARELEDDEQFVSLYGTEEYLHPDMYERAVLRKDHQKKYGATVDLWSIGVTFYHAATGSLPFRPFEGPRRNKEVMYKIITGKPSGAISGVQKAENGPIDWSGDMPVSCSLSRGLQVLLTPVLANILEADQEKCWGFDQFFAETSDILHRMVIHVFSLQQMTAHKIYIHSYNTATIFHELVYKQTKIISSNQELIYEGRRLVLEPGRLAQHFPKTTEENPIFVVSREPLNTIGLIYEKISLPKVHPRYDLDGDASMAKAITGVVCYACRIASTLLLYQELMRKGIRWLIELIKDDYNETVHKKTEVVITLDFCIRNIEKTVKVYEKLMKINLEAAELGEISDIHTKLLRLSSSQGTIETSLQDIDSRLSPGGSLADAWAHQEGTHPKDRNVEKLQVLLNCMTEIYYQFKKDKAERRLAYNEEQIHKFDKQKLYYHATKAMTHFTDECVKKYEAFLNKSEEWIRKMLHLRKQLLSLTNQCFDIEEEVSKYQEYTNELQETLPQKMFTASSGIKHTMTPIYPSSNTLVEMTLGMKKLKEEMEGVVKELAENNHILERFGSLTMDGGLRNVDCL

[3] = biological target: T2, Acyl-CoA dehydrogenase family member 11 (Homo sapiens, UniProt Q709F0)
T2 sequence (Q709F0 whole entry): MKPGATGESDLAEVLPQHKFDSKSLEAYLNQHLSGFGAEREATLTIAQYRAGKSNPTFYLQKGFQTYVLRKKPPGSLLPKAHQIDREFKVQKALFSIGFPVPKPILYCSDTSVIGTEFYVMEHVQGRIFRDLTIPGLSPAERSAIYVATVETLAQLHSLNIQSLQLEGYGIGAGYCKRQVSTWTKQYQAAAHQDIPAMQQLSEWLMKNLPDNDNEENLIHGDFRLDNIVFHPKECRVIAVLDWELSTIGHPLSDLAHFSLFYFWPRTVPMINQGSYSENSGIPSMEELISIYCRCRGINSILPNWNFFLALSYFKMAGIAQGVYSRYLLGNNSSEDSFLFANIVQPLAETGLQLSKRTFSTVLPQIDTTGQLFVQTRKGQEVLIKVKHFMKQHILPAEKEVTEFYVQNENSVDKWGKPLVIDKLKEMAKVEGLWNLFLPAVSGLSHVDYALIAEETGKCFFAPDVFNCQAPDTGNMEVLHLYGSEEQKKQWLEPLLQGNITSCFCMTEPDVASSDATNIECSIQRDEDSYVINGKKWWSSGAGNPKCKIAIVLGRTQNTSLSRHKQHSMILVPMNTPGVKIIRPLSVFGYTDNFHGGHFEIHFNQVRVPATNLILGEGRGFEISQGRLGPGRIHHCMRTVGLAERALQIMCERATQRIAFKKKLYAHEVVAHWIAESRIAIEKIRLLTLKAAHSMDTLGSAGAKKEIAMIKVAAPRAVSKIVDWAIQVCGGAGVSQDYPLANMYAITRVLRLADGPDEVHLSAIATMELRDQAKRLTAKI

[4] = biological target: MAP kinase-activated protein kinase 2 (Homo sapiens, UniProt P49137)
MAP kinase-activated protein kinase 2, sequence (P49137 whole entry): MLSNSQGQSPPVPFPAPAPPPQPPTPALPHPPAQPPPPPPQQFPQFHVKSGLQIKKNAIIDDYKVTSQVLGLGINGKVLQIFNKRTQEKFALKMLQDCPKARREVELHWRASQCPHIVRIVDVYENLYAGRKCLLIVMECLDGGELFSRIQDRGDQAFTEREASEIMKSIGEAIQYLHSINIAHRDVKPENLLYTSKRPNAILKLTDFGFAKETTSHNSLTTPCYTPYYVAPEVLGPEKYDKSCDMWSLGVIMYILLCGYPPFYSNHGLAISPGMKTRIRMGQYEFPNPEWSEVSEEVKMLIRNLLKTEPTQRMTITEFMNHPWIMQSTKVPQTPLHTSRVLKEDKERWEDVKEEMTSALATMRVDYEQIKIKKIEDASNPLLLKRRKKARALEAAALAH

[5] = biological target: T3, ATP-dependent RNA helicase DDX1 (Homo sapiens, UniProt Q92499)
T3 sequence (Q92499 whole entry): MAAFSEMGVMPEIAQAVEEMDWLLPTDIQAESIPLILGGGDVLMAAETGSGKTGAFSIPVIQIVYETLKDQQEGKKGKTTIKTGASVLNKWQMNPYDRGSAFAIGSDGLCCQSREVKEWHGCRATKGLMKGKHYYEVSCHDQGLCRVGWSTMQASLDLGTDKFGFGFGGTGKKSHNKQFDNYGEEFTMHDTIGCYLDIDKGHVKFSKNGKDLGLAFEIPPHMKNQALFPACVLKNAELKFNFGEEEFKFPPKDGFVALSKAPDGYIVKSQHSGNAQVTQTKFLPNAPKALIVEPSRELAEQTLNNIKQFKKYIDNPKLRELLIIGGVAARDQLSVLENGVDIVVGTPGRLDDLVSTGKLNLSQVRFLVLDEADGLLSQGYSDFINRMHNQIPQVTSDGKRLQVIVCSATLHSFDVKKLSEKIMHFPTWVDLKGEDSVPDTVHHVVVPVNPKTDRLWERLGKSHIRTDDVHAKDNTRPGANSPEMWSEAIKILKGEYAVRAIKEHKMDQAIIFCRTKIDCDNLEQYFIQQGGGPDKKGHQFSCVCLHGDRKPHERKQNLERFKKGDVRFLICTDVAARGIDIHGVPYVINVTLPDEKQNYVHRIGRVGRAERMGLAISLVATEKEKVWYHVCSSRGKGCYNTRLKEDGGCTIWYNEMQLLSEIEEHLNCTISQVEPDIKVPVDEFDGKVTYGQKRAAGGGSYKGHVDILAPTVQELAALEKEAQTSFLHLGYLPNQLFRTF

[6] = biological target: T4, cGMP-dependent protein kinase 1 (Homo sapiens, UniProt Q13976)
T4 sequence (Q13976 whole entry): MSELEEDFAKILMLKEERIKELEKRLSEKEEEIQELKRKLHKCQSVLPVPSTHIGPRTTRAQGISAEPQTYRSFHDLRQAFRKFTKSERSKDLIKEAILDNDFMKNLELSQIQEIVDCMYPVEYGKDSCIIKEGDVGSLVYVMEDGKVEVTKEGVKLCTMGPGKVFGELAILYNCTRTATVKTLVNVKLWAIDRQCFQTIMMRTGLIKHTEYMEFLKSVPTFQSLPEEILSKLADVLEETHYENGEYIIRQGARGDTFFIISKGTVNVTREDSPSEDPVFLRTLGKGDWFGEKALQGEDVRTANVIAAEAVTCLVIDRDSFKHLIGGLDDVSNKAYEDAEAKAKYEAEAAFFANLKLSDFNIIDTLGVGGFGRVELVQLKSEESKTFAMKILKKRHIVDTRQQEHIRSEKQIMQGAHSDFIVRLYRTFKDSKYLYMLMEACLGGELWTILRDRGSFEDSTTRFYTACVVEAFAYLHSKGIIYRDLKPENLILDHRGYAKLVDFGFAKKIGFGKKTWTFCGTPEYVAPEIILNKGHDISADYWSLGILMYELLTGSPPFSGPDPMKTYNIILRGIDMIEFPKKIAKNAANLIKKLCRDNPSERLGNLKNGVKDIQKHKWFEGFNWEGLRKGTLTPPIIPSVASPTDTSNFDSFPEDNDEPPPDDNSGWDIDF
Note: in the data inactive means no Kd found up to 30 µM.

Serine/threonine-protein kinase/endoribonuclease IRE2, sequence (Q76MJ5 whole entry): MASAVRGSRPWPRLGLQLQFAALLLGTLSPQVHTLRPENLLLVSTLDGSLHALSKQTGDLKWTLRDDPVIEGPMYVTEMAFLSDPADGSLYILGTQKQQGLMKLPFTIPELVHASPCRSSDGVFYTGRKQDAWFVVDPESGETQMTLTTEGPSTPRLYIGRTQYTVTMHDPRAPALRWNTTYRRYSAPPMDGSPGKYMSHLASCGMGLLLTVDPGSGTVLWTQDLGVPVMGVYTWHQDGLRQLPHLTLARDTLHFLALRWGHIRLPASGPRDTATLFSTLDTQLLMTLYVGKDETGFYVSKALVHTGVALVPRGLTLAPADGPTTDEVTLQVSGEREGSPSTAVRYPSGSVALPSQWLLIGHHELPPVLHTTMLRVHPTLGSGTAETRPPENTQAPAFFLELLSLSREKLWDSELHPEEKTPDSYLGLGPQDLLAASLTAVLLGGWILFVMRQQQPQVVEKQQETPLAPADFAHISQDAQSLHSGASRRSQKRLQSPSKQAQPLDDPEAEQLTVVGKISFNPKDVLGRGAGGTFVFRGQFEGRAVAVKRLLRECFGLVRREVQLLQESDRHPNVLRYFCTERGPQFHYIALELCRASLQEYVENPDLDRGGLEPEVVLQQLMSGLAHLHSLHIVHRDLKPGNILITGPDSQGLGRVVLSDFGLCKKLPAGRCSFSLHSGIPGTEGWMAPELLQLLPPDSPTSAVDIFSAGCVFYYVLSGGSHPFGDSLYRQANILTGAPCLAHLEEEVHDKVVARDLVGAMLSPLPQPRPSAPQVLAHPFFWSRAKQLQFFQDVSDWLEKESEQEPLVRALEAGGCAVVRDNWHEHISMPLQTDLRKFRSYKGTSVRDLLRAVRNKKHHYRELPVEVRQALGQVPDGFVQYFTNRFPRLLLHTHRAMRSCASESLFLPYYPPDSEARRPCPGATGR

| Kd [1] | Kd [2] | Kd [3] | Kd [4] | Kd [5] | Kd [6] | Compound |
| --- | --- | --- | --- | --- | --- | --- |
| > 30 µM (inactive) | > 30 µM (inactive) | > 30 µM (inactive) | > 30 µM (inactive) | > 30 µM (inactive) | > 30 µM (inactive) | CC[C@@](C)(Nc1ccnc(-c2c[nH]c3ncccc23)n1)C(=O)NCC(F)(F)F [DECERNOTINIB] |
| > 30 µM (inactive) | > 30 µM (inactive) | > 30 µM (inactive) | > 30 µM (inactive) | > 30 µM (inactive) | > 30 µM (inactive) | COc1cc(Nc2ncc(F)c(Nc3ccc4c(n3)N(COP(=O)(O)O)C(=O)C(C)(C)O4)n2)cc(OC)c1OC [FOSTAMATINIB] |
| > 30 µM (inactive) | > 30 µM (inactive) | > 30 µM (inactive) | > 30 µM (inactive) | > 30 µM (inactive) | > 30 µM (inactive) | C#Cc1cccc(Nc2ncnc3cc4c(cc23)OCCOCCOCCO4)c1 [ICOTINIB] |
| > 30 µM (inactive) | > 30 µM (inactive) | > 30 µM (inactive) | > 30 µM (inactive) | > 30 µM (inactive) | > 30 µM (inactive) | COc1cc2ncnc3c2cc1OCCCCCN(C)Cc1ccc(Br)cc1N3 [JNJ-26483327] |
| > 30 µM (inactive) | > 30 µM (inactive) | > 30 µM (inactive) | > 30 µM (inactive) | > 30 µM (inactive) | > 30 µM (inactive) | Cc1ccc(C(=O)Nc2ccc(Oc3cc4cnn(C)c4cc3-c3cn[nH]c3)c(F)c2)c(=O)n1-c1ccc(F)cc1 [MERESTINIB] |
| > 30 µM (inactive) | > 30 µM (inactive) | > 30 µM (inactive) | > 30 µM (inactive) | > 30 µM (inactive) | > 30 µM (inactive) | O=C(NOC[C@H](O)CO)c1ccc(F)c(F)c1Nc1ccc(I)cc1F [MIRDAMETINIB] |
| > 30 µM (inactive) | > 30 µM (inactive) | > 30 µM (inactive) | > 30 µM (inactive) | > 30 µM (inactive) | > 30 µM (inactive) | COc1cccc2cc(-c3nc([C@H]4CC[C@H](C(=O)O)CC4)n4ncnc(N)c34)[nH]c12 [OSI-027] |
| > 30 µM (inactive) | > 30 µM (inactive) | > 30 µM (inactive) | > 30 µM (inactive) | > 30 µM (inactive) | > 30 µM (inactive) | O=C(Nc1ccc(OC(F)(F)F)cc1)c1sccc1NCc1ccnc2ccccc12 [OSI-930] |
| > 30 µM (inactive) | > 30 µM (inactive) | > 30 µM (inactive) | > 30 µM (inactive) | > 30 µM (inactive) | > 30 µM (inactive) | FC(F)(F)c1ccc(CNc2ccc(Cc3c[nH]c4ncc(Cl)cc34)cn2)cn1 [PEXIDARTINIB] |
| > 30 µM (inactive) | > 30 µM (inactive) | > 30 µM (inactive) | > 30 µM (inactive) | > 30 µM (inactive) | > 30 µM (inactive) | O=C(NC[C@H](O)CO)c1ccncc1Nc1ccc(I)cc1F [PIMASERTIB] |
| > 30 µM (inactive) | > 30 µM (inactive) | > 30 µM (inactive) | > 30 µM (inactive) | > 30 µM (inactive) | > 30 µM (inactive) | C=CC(=O)Nc1cccc(Nc2nc(Nc3ccc(N4CCN(C(C)=O)CC4)cc3OC)ncc2C(F)(F)F)c1 [ROCILETINIB] |
| > 30 µM (inactive) | > 30 µM (inactive) | > 30 µM (inactive) | > 30 µM (inactive) | > 30 µM (inactive) | > 30 µM (inactive) | CC(C)(O)CC(=O)NCCn1ccc2ncnc(Nc3ccc(Oc4cccc(C(F)(F)F)c4)c(Cl)c3)c21 [TAK-285] |
| > 30 µM (inactive) | > 30 µM (inactive) | > 30 µM (inactive) | > 30 µM (inactive) | > 30 µM (inactive) | > 30 µM (inactive) | Cc1cc(C(=O)Nc2cc(Oc3ccc4nc(NC(=O)C5CC5)cn4n3)ccc2C)n(C)n1 [TAK-593] |
| > 30 µM (inactive) | > 30 µM (inactive) | > 30 µM (inactive) | > 30 µM (inactive) | > 30 µM (inactive) | > 30 µM (inactive) | Cn1c(=O)c(F)c(Nc2ccc(I)cc2F)c2c(=O)n(C[C@@H](O)CO)cnc21 [TAK-733] |
| > 30 µM (inactive) | > 30 µM (inactive) | > 30 µM (inactive) | 0.934 µM (active) | > 30 µM (inactive) | > 30 µM (inactive) | O[C@H]1CC[C@H](Nc2ncc3nc(Nc4c(F)cc(F)cc4F)n([C@H]4CCOC4)c3n2)CC1 [TANZISERTIB] |

| Compound | Kd [1] | Kd [2] | Kd [3] | Kd [4] | Kd [5] | Kd [6] |
| --- | --- | --- | --- | --- | --- | --- |
| CNC(=O)c1ccc(Nc2ncc(C(F)(F)F)c(NCc3nccnc3N(C)S(C)(=O)=O)n2)cc1 [DEFACTINIB] | > 30 µM (inactive) | > 30 µM (inactive) | > 30 µM (inactive) | > 30 µM (inactive) | > 30 µM (inactive) | > 30 µM (inactive) |
| Cc1c(Cn2c(C)nc3c(C(=O)O)cc(N4CCOCC4)cc32)cccc1C(F)(F)F [GSK-2636771] | > 30 µM (inactive) | > 30 µM (inactive) | > 30 µM (inactive) | > 30 µM (inactive) | > 30 µM (inactive) | > 30 µM (inactive) |
| COc1cc(F)c(F)c(Nc2ccc(I)cc2F)c1NS(=O)(=O)C1(C[C@H](O)CO)CC1 [REFAMETINIB] | > 30 µM (inactive) | > 30 µM (inactive) | > 30 µM (inactive) | > 30 µM (inactive) | > 30 µM (inactive) | > 30 µM (inactive) |
| COCCN1CCN(Cc2ccc(-c3n[nH]c4c3C(=O)c3c(NC(=O)NN5CCOCC5)cccc3-4)cc2)CC1 [RGB-286638] | > 30 µM (inactive) | 2.01 µM (active) | > 30 µM (inactive) | > 30 µM (inactive) | > 30 µM (inactive) | > 30 µM (inactive) |
